This is an account of results in US8252737B2, “Antimicrobial peptides and methods of use” (priority 2004, dated 2012).

A short description of data set [1]: RP-HPLC temperature profiling (hydrophobicity and self-association/dimerization parameter PA). It counts as physicochemical. Conditions: for tR (min) 5° C.: RP-HPLC retention time at 5° C. during temperature profiling (measure of hydrophobicity); for tR (min) 80° C.: RP-HPLC retention time at 80° C. during temperature profiling; for tR (min) Max: maximal RP-HPLC retention time during temperature profiling 5-80° C.; for PA (min) association parameter: maximal retention time difference relative to control peptide C within 5-80° C.; for ΔtR (X-NVL) (min) 5° C.: retention time difference relative to native peptide V681 (NVL) at 5° C.; for ΔtR (X-NVL) (min) 5° C. / ΔtR (X-NVL) (min) 80° C. / ΔtR (X-PSL) (min) 5° C. / ΔtR (X-PSL) (min) 80° C.: relative hydrophobicity; for ΔtR (X-NVL) (min) 80° C.: retention time difference relative to native peptide V681 (NVL) at 80° C.; for ΔtR (X-PSL) (min) 5° C. / ΔtR (X-PSL) (min) 80° C.: polar face substitutions; for ΔtR (X-PSL) (min) 5° C.: retention time difference relative to native peptide V681 (PSL) at 5° C.; for ΔtR (X-PSL) (min) 80° C.: retention time difference relative to native peptide V681 (PSL) at 80° C. A digest of the protocol: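 RP-HPLC retention times recorded over temperature profiling from 5°C to 80°C, with retention relative to native V681 at each limit used as hydrophobicity. Self-association parameter PA defined as the maximal change in retention time from 5°C, after subtracting that of monomeric random-coil control peptide C.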

Data set [2] concerns E. faecalis. A digest of the protocol: (§1)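 Microtiter dilution in LB no-salt or Mueller-Hinton medium, with BHI for Pseudomonas aeruginosa clinical isolates (final inoculum 1×10^6 CFU/ml). Plates were incubated 24 hours at 37° C. MIC was the lowest peptide concentration inhibiting growth.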
Data set [3] relates to C. albicans. A digest of the protocol: as §1
For data set [4] the following is noted: C610 abs. On the procedure:
(§2) The geometric mean MIC values from 6 microbial strains in this table were calculated to provide an overall evaluation of antimicrobial activity against gram-negative bacteria.
(§3) Measurement of Antimicrobial Activity—Minimal inhibitory concentrations (MICs) were determined using a standard microtiter dilution method in LB (Luria-Bertani) no-salt medium (10 g of tryptone and 5 g of yeast extract per liter). Briefly, cells were grown overnight at 37° C. in LB and diluted in the same medium. […] Plates were incubated at 37° C. for 24 hours and MICs determined as the lowest peptide concentration that inhibited growth. Alternatively, minimal inhibitory concentrations were determined using a standard microtiter dilution method in a Mueller-Hinton (MH) medium. Briefly, cells were grown overnight at 37° C. in MH broth and diluted in the same medium. […] Plates were incubated at 37° C. for 24 hours and MICs determined as the lowest peptide concentration that inhibited growth. However, for MIC determination of Pseudomonas aeruginosa clinical isolates, brain heart infusion (BH1) medium was used instead of MH broth. In addition, the bacteria were diluted to a final inoculum of 1×10^6 colony-forming units/ml.

Data set [5] concerns E. coli (UB 1005 wt and DC2 abs). The protocol: as §2, §3
The subject of data set [6] is S. typhimurium C610 abs. Conditions: C610 abs. On the procedure:
as §2, §3

The subject of data set [7] is P. aeruginosa H187 wt. The protocol:
as §2, §3

Data set [8] deals with gram-negative bacteria. Put plainly: MIC, microtiter dilution, Gram-negative bacteria (geometric mean of 6 strains). Conditions: for MIC (μg/ml) Gram-negative: geometric mean MIC, Table 9. Format: cell-based. A digest of the protocol: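 Microtiter broth dilution in LB no-salt or Mueller-Hinton broth (brain heart infusion for P. aeruginosa clinical isolates, inoculum 1×10^6 CFU/ml); overnight 37° C. cultures diluted, plates incubated 37° C. 24 h. MIC is lowest peptide concentration inhibiting growth; value is geometric mean over 6 strains.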

The test system of data set [9] is Pseudomonas aeruginosa strains.

In brackets after ≈: the same amount, converted by molar mass. Square brackets hold non-standard residues; d marks the D form. Peptide text beside a SMILES is read from it.

Take `CC[C@H](C)[C@H](NC(=O)[C@H](C)NC(=O)[C@H](CCCCN)NC(=O)[C@H](CC(C)C)NC(=O)[C@H](C)NC(=O)[C@@H](NC(=O)[C@H](Cc1c[nH]cn1)NC(=O)[C@H](CC(C)C)NC(=O)[C@@H](NC(=O)[C@@H](NC(=O)[C@H](CCCCN)NC(=O)[C@@H](C)NC(=O)[C@H](C)NC(=O)[C@H](CO)NC(=O)[C@H](CCCCN)NC(=O)[C@H](Cc1ccccc1)NC(=O)[C@@H](NC(=O)[C@H](CCCCN)NC(=O)[C@H](CC(C)C)NC(=O)[C@H](Cc1ccccc1)NC(=O)[C@H](CO)NC(=O)[C@H](CCCCN)NC(=O)[C@H](Cc1c[nH]c2ccccc12)NC(=O)[C@H](CCCCN)NC(C)=O)[C@@H](C)O)[C@@H](C)O)C(C)C)[C@@H](C)O)C(=O)N[C@@H](CO)C(=O)N[C@@H](CO)C(N)=O` [NAD]: in data set [1], the “tR (min) 5° C.” value came out at 40.49 min, the “tR (min) 80° C.” value was found to be 38.00 min, the “tR (min) Max” value came out at 41.01 min and the “PA (min) association parameter” value is recorded as 2.19 min. Besides, in data set [1] (RP-HPLC retention time at pH 2, 5° C.), the “Hydrophobicity tR5” value is 81.2 min. Further, the “Hydrophobicity tR80” value in data set [1] (RP-HPLC retention time at pH 2, 80° C.) stood at 73.2 min. The “PA (dimerization / self-association parameter)” value in data set [1] (maximal retention time difference relative to control peptide C, 5-80° C.) is 4.1. In addition, in [1] (non-polar face substitutions), the “ΔtR (X-NVL) (min) 5° C.” value was -7.61 min and the “ΔtR (X-NVL) (min) 80° C.” value was -7.83 min. In addition, in data set [2], the “MIC (μg/ml) E. faecalis C625 wt” value is 12.5 µg/mL (≈ 4.26 µM). Also, in [3], the “MIC (μg/ml) C. albicans” value is 12.5 µg/mL (≈ 4.26 µM). Further, the “MIC (μg/ml) St C587 wt” value in data set [4] was determined as 12.5 µg/mL (≈ 4.26 µM). The “MIC (μg/ml) E. coli C500 abs” value in [5] (antibiotic sensitive strain) worked out at 1.6 µg/mL (≈ 0.545 µM). The “MIC (μg/ml) E. coli C498 wt” value in data set [5] (wild-type lab strain) amounted to 3.1 µg/mL (≈ 1.06 µM). Further, the “MIC (μg/ml) St C610 abs” value in data set [6] is 3.1 µg/mL (≈ 1.06 µM). The “MIC (μg/ml) Pa H188 abs” value in data set [7] is 1.6 µg/mL (≈ 0.545 µM). Also, the “MIC (μg/ml) Pa H187 wt” value in [7] (H187 wt) amounted to 3.1 µg/mL (≈ 1.06 µM). Moreover, the “MIC (μg/ml) GM” value in [8] (geometric mean of MIC values from all 6 Gram-negative strains of Table 11) turned out to be 3.1 µg/mL (≈ 1.06 µM). Further, the “Antimicrobial activity Fold” value in [9] (fold improvement in geometric mean MIC compared to V681) amounted to 1.3. Moreover, in data set [9] (strain CP 204), the “MIC CP 204” value stood at 7.8 µg/mL (≈ 2.66 µM). In addition, in data set [9] (strains), the “MIC GM” value amounted to 22.1 µg/mL (≈ 7.53 µM), the “MIC M 2” value was 7.8 µg/mL (≈ 2.66 µM), the “MIC PA 14” value was 31.3 µg/mL (≈ 10.7 µM) and the “MIC PAK” value was determined as 62.5 µg/mL (≈ 21.3 µM). Further, in data set [9] (strains), the “MIC PAO 1” value was determined as 15.6 µg/mL (≈ 5.32 µM) and the “MIC WR 5” value was determined as 62.5 µg/mL (≈ 21.3 µM).
As for `CC[C@H](C)[C@H](NC(=O)[C@H](C)NC(=O)[C@H](CCCCN)NC(=O)[C@H](CC(C)C)NC(=O)[C@H](C)NC(=O)[C@@H](NC(=O)[C@H](Cc1c[nH]cn1)NC(=O)[C@H](CC(C)C)NC(=O)[C@@H](NC(=O)[C@@H](NC(=O)[C@H](CCCCN)NC(=O)[C@@H](NC(=O)[C@H](C)NC(=O)[C@@H](CO)NC(=O)[C@H](CCCCN)NC(=O)[C@H](Cc1ccccc1)NC(=O)[C@@H](NC(=O)[C@H](CCCCN)NC(=O)[C@H](CC(C)C)NC(=O)[C@H](Cc1ccccc1)NC(=O)[C@H](CO)NC(=O)[C@H](CCCCN)NC(=O)[C@H](Cc1c[nH]c2ccccc12)NC(=O)[C@H](CCCCN)NC(C)=O)[C@@H](C)O)C(C)C)[C@@H](C)O)C(C)C)[C@@H](C)O)C(=O)N[C@@H](CO)C(=O)N[C@@H](CO)C(N)=O` [PSD], in [1], the “tR (min) 5° C.” value was determined as 45.47 min, the “tR (min) 80° C.” value was 42.59 min, the “tR (min) Max” value is reported as 46.60 min and the “PA (min) association parameter” value was found to be 2.73 min. Besides, in data set [1], the “ΔtR (X-PSL) (min) 5° C.” value was -2.63 min and the “ΔtR (X-PSL) (min) 80° C.” value is -3.24 min. The “MIC (μg/ml) Gram-negative” value in data set [8] is 2.9 µg/mL (≈ 0.979 µM).
In the case of `CC[C@H](C)[C@H](NC(=O)[C@H](C)NC(=O)[C@H](CCCCN)NC(=O)[C@H](CC(C)C)NC(=O)[C@H](C)NC(=O)[C@@H](NC(=O)[C@H](Cc1c[nH]cn1)NC(=O)[C@H](CC(C)C)NC(=O)[C@@H](NC(=O)[C@@H](NC(=O)[C@H](CCCCN)NC(=O)[C@@H](NC(=O)[C@H](C)NC(=O)[C@H](NC(=O)[C@H](CCCCN)NC(=O)[C@H](Cc1ccccc1)NC(=O)[C@@H](NC(=O)[C@H](CCCCN)NC(=O)[C@H](CC(C)C)NC(=O)[C@H](Cc1ccccc1)NC(=O)[C@H](CO)NC(=O)[C@H](CCCCN)NC(=O)[C@H](Cc1c[nH]c2ccccc12)NC(=O)[C@H](CCCCN)NC(C)=O)[C@@H](C)O)C(C)C)C(C)C)[C@@H](C)O)C(C)C)[C@@H](C)O)C(=O)N[C@@H](CO)C(=O)N[C@@H](CO)C(N)=O` [PVD] (Ac-KWKSFLKTFK[dV]AVKTVLHTALKAISS-NH2), in data set [1], the “tR (min) 5° C.” value is given as 42.96 min, the “tR (min) 80° C.” value is 40.51 min, the “tR (min) Max” value worked out at 43.83 min and the “PA (min) association parameter” value is 2.54 min. Besides, in data set [1], the “ΔtR (X-PSL) (min) 5° C.” value was -5.14 min and the “ΔtR (X-PSL) (min) 80° C.” value was -5.32 min. Moreover, the “MIC (μg/ml) Gram-negative” value in [8] was found to be 6.1 µg/mL (≈ 2.05 µM).
With Ac-KWKSFLKTFKSAGKTVLHTALKAISS-NH2 [NG], in data set [1], the “tR (min) 5° C.” value is 39.96 min, the “tR (min) 80° C.” value was 36.74 min, the “tR (min) Max” value was determined as 40.22 min and the “PA (min) association parameter” value amounted to 1.64 min. In data set [1] (non-polar face substitutions), the “ΔtR (X-NVL) (min) 5° C.” value is -8.14 min and the “ΔtR (X-NVL) (min) 80° C.” value was -9.09 min. Moreover, the “MIC (μg/ml) Gram-negative” value in data set [8] turned out to be 4.1 µg/mL.
Take Ac-KWKSFLKTFKSALKTVLHTALKAISS-NH2 [NLL]: in [1], the “tR (min) 5° C.” value is given as 48.16 min, the “tR (min) 80° C.” value is listed as 47.02 min, the “tR (min) Max” value is given as 50.45 min and the “PA (min) association parameter” value turned out to be 4.22 min. Further, in data set [1] (non-polar face substitutions), the “ΔtR (X-NVL) (min) 5° C.” value is 0.06 min and the “ΔtR (X-NVL) (min) 80° C.” value was found to be 1.19 min. In addition, the “geometric mean MIC against Gram-negative bacteria” value in data set [8] (6 strains of Table 7) stood at 12.7 µg/mL.
For Ac-KWKSFLKTFKSASKTVLHTALKAISS-NH2 [NSL], in [1], the “tR (min) 5° C.” value was 40.72 min, the “tR (min) 80° C.” value is given as 37.62 min, the “tR (min) Max” value was found to be 41.08 min and the “PA (min) association parameter” value is listed as 1.82 min. The “decrease in hydrophobicity relative to NVL (V681)” value in data set [1] (RP-HPLC retention time difference at 80° C., non-polar face substitutions) is -8.21 min. Further, in data set [1] (non-polar face substitutions), the “ΔtR (X-NVL) (min) 5° C.” value was -7.38 min and the “ΔtR (X-NVL) (min) 80° C.” value was -8.21 min. In addition, in data set [8], the “MIC (μg/ml) Gram-negative” value worked out at 4.2 µg/mL.
